Common to all, as to format: biochemical
The target of one assay is p38α (Homo sapiens, UniProt Q16539). Nature of the assay: Assay for p38 kinase inhibition (p38α).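 Also: radiometric p38 kinase assay, peptide substrate phosphorylation with γ-32P-ATP, 40 min at room temperature, incorporated counts measured by scintillation, inhibition relative to uninhibited kinase activity.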
A further assay has as its target p38β (Homo sapiens, UniProt Q15759). Nature of the assay: p38 kinase inhibition assay, p38β. Here is the method: The compounds to be tested were solubilized in DMSO and diluted into water to the desired concentrations. The p38 kinase was diluted to 10 μg/ml into a buffer containing 20 mM MOPS, pH 7.0, 25 mM beta-glycerol phosphate, 2 mg/ml gelatin, 0.5 mM EGTA, and 4 mM DTT.
The reaction was carried out by mixing 20 μl test compound with 10 μl of a substrate cocktail containing 500 μg/ml peptide substrate and 0.2 mM ATP (+200 μCi/ml gamma-32P-ATP) in a 4×assay buffer. The reaction was initiated by the addition of 10 μl of p38 kinase. Final assay conditions were 25 mM MOPS, pH 7.0, 26.25 mM beta-glycerol phosphate, 80 mM KCl, 22 mM MgCl2, 3 mM MgSO4, 1 mg/ml gelatin, 0.625 mM. […] After a 40 minute incubation at room temperature, the reaction was stopped by the addition of 10 μl per reaction of 0.25 M phosphoric acid.
A portion of the reaction was spotted onto a disk of P81 phosphocellulose paper, the filters were dried for 2 minutes and then washed 4× in 75 mM H3PO4. The filters were rinsed briefly in 95% ethanol, dried, then placed in scintillation vials with liquid scintillation cocktail.
Alternatively, the substrate is previously biotinylated and the resulting reactions are spotted on SAM^2TM streptavidin filter squares (Promega). The filters are washed 4× in 2M NaCl, 4× in 2M NaCl with 1% phosphoric acid, 2× in water, and briefly in 95% ethanol. The filter squares are dried and placed in scintillation vials with liquid scintillation cocktail.
(§1) Counts incorporated are determined on a scintillation counter. Relative enzyme activity is calculated by subtracting background counts (counts measured in the absence of enzyme) from each result, and comparing the resulting counts to those obtained in the absence of inhibitor. IC50 values were determined with curve-fitting plots available with common software packages. Approximate IC50 values were calculated using formula
(§2) where A=fractional activity and i=total inhibitor concentration.
Activity with regard to p38β was also tested for compounds of the invention to determine the influence of the position of the piperidinyl or piperazinyl substituent. The influence of substitution on the benzyl moiety attached to the 4-position of the piperazine or piperidine was also tested.

A further assay has as its target PKA (Homo sapiens, UniProt P17612). Nature of the assay: Kinase specificity, PKA. Conditions: approximate IC50; tested at 50 μM, calculated using the formula in Example 22. As for the experimental part: as §1, §2
(§3) The specificity of the compounds of the invention was also tested with respect to other kinases, including p38-γ, ERK-2, PKA, PKC, cdc-2, EGF-R, and DNA-PK as shown in Table 4. The compounds tested are the 4-benzylpiperidinyl indole-5- and 6-carboximides with the number indicating the ring position of the carboxamide.
(§4) The exception is for p38α values where the IC50 values were determined from concentration dependent curve fitting analysis.

The target of another assay is ERK-2 (Homo sapiens, UniProt P28482). Nature of the assay: Kinase specificity, ERK-2. Particulars: approximate IC50; tested at 50 μM, calculated using the formula in Example 22. As for the experimental part:
as §1, §2, §3, §4

In a further assay the target is DNA-PK (Homo sapiens, UniProt P78527). Nature of the assay: Kinase specificity, DNA-PK. Particulars: approximate IC50; tested at 50 μM, calculated using the formula in Example 22. As for the experimental part:
as §1, §2, §3, §4

Another assay concerns the target PKC. Nature of the assay: Kinase specificity, PKC. Conditions: approximate IC50; tested at 50 μM, calculated using the formula in Example 22. Here is the method:
as §1, §2, §3, §4

A further assay deals with EGF-R (Homo sapiens, UniProt P00533). Nature of the assay: Kinase specificity, EGF-R. Conditions: approximate IC50; tested at 50 μM, calculated using the formula in Example 22. As for the experimental part: as §1, §2, §3, §4
Chain of EGF-R (P00533 25-1210, species assumed): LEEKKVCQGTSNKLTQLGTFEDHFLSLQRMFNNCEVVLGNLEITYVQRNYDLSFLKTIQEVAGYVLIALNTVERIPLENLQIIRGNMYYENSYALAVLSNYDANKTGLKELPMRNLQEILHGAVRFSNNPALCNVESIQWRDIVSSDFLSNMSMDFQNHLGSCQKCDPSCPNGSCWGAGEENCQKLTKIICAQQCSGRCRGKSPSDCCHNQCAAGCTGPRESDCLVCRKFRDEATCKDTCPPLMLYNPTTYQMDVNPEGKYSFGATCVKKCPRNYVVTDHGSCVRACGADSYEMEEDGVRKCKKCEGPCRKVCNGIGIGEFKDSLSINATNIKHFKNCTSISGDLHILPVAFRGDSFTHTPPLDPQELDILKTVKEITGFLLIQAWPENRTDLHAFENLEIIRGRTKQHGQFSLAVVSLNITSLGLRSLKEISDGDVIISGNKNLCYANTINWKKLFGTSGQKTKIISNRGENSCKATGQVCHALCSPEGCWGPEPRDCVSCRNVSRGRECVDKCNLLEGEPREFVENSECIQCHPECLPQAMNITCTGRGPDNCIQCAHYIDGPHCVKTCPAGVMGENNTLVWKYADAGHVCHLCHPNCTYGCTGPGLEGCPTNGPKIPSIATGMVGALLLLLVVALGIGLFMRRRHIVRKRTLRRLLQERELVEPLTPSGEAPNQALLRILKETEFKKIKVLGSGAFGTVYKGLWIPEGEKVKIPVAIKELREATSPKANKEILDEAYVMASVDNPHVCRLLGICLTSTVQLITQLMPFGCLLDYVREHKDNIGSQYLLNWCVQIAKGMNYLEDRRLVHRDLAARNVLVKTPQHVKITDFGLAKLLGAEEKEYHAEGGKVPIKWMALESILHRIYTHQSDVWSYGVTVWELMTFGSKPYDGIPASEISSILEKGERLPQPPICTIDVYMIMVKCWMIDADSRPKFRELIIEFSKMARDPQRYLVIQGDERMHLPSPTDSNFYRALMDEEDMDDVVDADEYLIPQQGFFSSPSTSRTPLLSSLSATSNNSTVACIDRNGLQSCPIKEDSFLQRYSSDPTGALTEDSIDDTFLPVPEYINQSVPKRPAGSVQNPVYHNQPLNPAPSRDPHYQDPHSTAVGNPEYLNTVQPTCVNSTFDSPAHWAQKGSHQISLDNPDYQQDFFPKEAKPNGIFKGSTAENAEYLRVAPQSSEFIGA
A further assay has as its target cdc2 (Homo sapiens, UniProt P06493). Nature of the assay: Kinase specificity, cdc2. Particulars: approximate IC50; tested at 50 μM, calculated using the formula in Example 22. As for the experimental part:
as §1, §2, §3, §4

A further assay concerns the target T1, p38-γ (Homo sapiens, UniProt P53778).
T1 sequence (P53778 1-367): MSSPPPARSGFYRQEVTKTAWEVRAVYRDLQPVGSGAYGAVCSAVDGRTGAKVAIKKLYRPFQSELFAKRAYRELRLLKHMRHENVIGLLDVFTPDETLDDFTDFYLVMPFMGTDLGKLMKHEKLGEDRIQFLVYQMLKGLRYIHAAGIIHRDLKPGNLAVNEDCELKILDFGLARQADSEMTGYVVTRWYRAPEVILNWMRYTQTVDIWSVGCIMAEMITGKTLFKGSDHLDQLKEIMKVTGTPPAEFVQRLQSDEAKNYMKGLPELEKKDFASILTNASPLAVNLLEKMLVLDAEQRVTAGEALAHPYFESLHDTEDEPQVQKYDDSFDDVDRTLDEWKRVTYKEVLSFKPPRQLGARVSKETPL
Nature of the assay: Kinase specificity, p38-γ. Particulars: approximate IC50; tested at 50 μM, calculated using the formula in Example 22. Here is the method:
as §1, §2, §3, §4

The mark [1] stands for this setting: Table 5, read-out: IC50, inhibition of p38α.
Setting [2] is: at 50 μM concentration of the compound, Table 3.
Where [3] appears, read: at 50 μM concentration of the compound, Table 3, read-out: percent inhibition of p38β activity.
[4] abbreviates: Table 1, by ring position of the piperidinyl or piperazinyl substituent on indole, read-out: IC50 for inhibition of p38α.

Values joined by “and” are separate entries in the source; they are usually repeats but may differ in a detail not shown here. Equal entries are not always repeated. Where two headings read alike, the source gives them in different places.

Chain of p38α (Q16539 whole entry): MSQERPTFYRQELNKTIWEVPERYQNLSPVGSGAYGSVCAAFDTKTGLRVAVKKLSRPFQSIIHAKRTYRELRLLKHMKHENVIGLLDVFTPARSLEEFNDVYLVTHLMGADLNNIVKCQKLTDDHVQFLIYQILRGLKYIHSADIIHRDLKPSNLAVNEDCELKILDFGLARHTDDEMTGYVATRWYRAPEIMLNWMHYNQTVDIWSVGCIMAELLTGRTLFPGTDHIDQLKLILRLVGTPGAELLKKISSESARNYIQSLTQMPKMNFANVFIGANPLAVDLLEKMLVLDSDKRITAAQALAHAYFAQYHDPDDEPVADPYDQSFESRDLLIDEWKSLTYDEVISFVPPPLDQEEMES
Chain of p38β (Q15759 whole entry): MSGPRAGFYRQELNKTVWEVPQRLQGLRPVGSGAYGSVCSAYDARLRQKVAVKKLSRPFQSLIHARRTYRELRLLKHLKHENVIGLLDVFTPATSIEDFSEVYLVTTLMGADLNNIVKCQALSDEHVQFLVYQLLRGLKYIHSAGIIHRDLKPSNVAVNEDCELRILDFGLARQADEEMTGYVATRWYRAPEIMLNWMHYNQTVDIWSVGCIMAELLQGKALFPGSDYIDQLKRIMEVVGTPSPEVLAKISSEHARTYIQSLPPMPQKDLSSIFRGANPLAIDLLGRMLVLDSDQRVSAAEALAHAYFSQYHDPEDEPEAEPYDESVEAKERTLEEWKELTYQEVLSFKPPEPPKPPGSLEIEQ
Chain of cdc2 (P06493 whole entry, species assumed): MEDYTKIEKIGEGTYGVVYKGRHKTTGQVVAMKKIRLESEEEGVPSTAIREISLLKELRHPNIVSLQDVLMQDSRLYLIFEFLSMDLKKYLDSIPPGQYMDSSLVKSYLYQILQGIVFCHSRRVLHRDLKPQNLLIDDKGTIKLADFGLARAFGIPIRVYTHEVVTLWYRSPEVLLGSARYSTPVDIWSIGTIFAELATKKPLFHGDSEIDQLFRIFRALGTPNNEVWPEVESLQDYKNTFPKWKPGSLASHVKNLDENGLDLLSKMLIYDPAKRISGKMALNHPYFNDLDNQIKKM
Chain of cdc2 (P14635 whole entry partner, species assumed): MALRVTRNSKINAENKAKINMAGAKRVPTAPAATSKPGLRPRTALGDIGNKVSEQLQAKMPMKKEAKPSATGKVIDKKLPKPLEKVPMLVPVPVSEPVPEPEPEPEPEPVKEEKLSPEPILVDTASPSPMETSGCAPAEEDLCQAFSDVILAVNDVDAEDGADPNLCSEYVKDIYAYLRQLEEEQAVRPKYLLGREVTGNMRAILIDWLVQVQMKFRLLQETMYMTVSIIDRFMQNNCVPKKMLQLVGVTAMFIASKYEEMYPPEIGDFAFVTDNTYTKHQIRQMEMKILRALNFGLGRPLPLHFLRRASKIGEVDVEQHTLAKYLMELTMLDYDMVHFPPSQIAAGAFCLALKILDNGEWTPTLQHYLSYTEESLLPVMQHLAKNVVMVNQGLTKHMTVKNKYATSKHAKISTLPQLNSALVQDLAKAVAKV
Chain of ERK-2 (P28482 whole entry, species assumed): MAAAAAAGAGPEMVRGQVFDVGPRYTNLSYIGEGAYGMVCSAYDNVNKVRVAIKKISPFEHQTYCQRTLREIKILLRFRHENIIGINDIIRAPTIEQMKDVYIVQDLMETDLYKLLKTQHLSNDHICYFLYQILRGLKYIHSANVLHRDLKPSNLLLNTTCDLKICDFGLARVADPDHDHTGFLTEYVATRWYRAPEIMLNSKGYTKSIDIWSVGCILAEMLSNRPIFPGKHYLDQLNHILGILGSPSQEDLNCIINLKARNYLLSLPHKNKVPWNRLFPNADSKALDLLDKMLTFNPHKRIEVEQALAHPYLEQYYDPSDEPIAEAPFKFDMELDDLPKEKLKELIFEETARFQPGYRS

In general, IC50 refers to the concentration that gives 50% inhibition. Take `O=C(c1ccc2[nH]cc(CN3CCOCC3)c2c1)N1CCC(Cc2ccccc2)CC1`: the IC50 at p38α (setting [1]) worked out at 6570 nM.

A word on the inhibition: it is the share of the control response that was lost under treatment. On to `CC(=O)N1CCC(Cc2ccc(F)cc2)C1` (stereo not shown), for which the inhibition at 1 µM against p38α (at 1 μM) was found to be 51%.

For `Cc1cc2c(Cl)c(C(=O)N3CCC(Cc4ccccc4)CC3)ccc2[nH]1`, the IC50 at p38α (setting [1]) came out at 489 nM. At p38α (at 0.2 μM), this compound registered an inhibition at 0.2 µM of 43%.

As to `O=C(c1ccc2[nH]cnc2c1)N1CCC(Cc2ccc(F)cc2)CC1`, the 50% inhibitory concentration (IC50) at p38α (setting [1]) is 390 nM.

For the compound “4-(4-Chlorobenzyl)piperazinyl-indole-5-carboxamide [Piperazinyl 5 4-Cl]”, on p38β (setting [2]), the “percent inhibition of p38β activity” value is recorded as 77%.

As to `CCN(CC)CCn1ccc2cc(C(=O)N3CCC(Cc4ccc(F)cc4)CC3)ccc21` [1-(Diethylamino)-ethyl-(4′-fluoro-4-benzylpiperidinyl)-indole-5-carboxamide], the IC50 on p38α (setting [1]) came out at 354 nM.

For the compound `CCN(CC)CCCn1ccc2cc(C(=O)N3CCC(Cc4ccccc4)CC3)c(Cl)cc21` [1-(Diethylamino)-n-propyl-6-chloro-(4-benzylpiperidinyl)-indole-5-carboxamide], on p38α (setting [1]), the IC50 is 199 nM.

With `CCN(CC)CCCn1ccc2cc(C(=O)N3CCC(Cc4ccccc4)CC3)ccc21` [1-(Diethylamino)n-propyl-(4-benzylpiperidinyl)-indole-5-carboxamide], the IC50 on p38α (setting [1]) is 474 nM.

Consider `CCN(CC)CCn1ccc2cc(C(=O)N3CCC(Cc4ccccc4)CC3)c(OC)cc21` [1-(Diethylaminoethyl)-6-methoxy-(4-benzylpiperidinyl)-indole-5-carboxamide], for which the IC50 at p38α (setting [1]) is 184 nM.

Regarding `O=C(c1ccc2c(C(=O)C(F)(F)F)c[nH]c2c1)N1CCC(Cc2ccccc2)CC1` [3-trifluoroacetyl-(4-benzylpiperidinyl)indole-6-carboxamide], the “inhibition of p38α” value at p38α (at 1 μM) turned out to be 41%.

`NC(=O)c1ccc2nc(N3CCN(Cc4cccc(Cl)c4)CC3)[nH]c2c1` [4-(3-chlorobenzyl)-piperazinyl-benzimidazole-5-carboxamide]: the “inhibition of p38β” value against p38β (compounds tested at 50 μM) was determined as 66%.

As to `O=C(c1ccc2[nH]cnc2c1)N1CCC(Cc2ccccc2)CC1` [4-Benzyl-piperidinyl-benzimidazole-5-carboxamide], the inhibition at 50 µM at p38β (compounds tested at 50 μM, read-out: inhibition of p38β) came to 85%. The IC50 at p38α (setting [1]) turned out to be 635 nM.

As to `COc1cc2[nH]cc(C(=O)NCCN(C)C)c2cc1C(=O)N1CCC(Cc2ccccc2)CC1` [6-methoxy-3-(2-dimethylaminoethylamino)carboxamidyl-(4-benzylpiperidinyl)indole-5-carboxamide], the half-inhibitory concentration (IC50) at p38α (setting [1]) was found to be 64.6 nM.

For the compound `COc1cc2[nH]ccc2cc1C(=O)N1CCC(Cc2ccc(F)cc2)CC1` [6-methoxy-(4-(4fluorobenzyl)piperidinyl)indole-5-carboxamide], at p38α (setting [1]), the IC50 amounted to 159 nM.

On to `O=C(c1cc2ccccc2[nH]1)N1CCN(Cc2ccccc2)CC1` [Piperazinyl 2], for which the inhibition at 50 µM at p38β (setting [3]) was 27%. Moreover, at p38α (setting [4]), the IC50 is above 30000 nM.

On to `O=C(c1c[nH]c2ccccc12)N1CCN(Cc2ccccc2)CC1` [Piperazinyl 3], for which the inhibition at 50 µM at p38β (setting [3]) was 77%. In addition, the IC50 on p38α (setting [4]) was found to be 5440 nM.

With `O=C(c1cccc2[nH]ccc12)N1CCN(Cc2ccccc2)CC1` [Piperazinyl 4], the inhibition at 50 µM at p38β (setting [3]) amounted to 68%.

For the compound `O=C(c1ccc2[nH]ccc2c1)N1CCN(Cc2ccccc2)CC1` [Piperazinyl 5], the inhibition at 50 µM on p38β (setting [3]) stood at 59%.

On to `O=C(c1ccc2cc[nH]c2c1)N1CCN(Cc2ccccc2)CC1` [Piperazinyl 6], for which the inhibition at 50 µM at p38β (setting [3]) is 56%. Besides, the IC50 on p38α (setting [4]) was determined as 4970 nM.

For the compound `O=C(c1cccc2cc[nH]c12)N1CCN(Cc2ccccc2)CC1` [Piperazinyl 7], on p38β (setting [3]), the inhibition at 50 µM is 7%.

On to `O=C(c1cc2ccccc2[nH]1)N1CCC(Cc2ccccc2)CC1` [Piperidinyl 2], for which the inhibition at 50 µM at p38β (setting [3]) amounted to 12%. For the same compound, on p38α (setting [4]), the IC50 came out at 3260 nM.

As to `O=C(c1c[nH]c2ccccc12)N1CCC(Cc2ccccc2)CC1` [Piperidinyl 3], at p38β (setting [3]), the inhibition at 50 µM amounted to 96%. Also, at p38α (setting [4]), the half-maximal inhibitory concentration (IC50) was determined as 200 nM.

As for `O=C(c1cccc2[nH]ccc12)N1CCC(Cc2ccccc2)CC1` [Piperidinyl 4], the inhibition at 50 µM at p38β (setting [3]) amounted to 96%. For the same compound, the IC50 at p38α (setting [4]) worked out at 200 nM.

With `O=C(c1ccc2[nH]ccc2c1)N1CCC(Cc2ccccc2)CC1` [Piperidinyl 5, 4-Benzylpiperidinyl-indole-5-carboxamide], on p38β (setting [3]), the inhibition at 50 µM turned out to be 96%. The IC50 on p38α (setting [4]) was 242 nM; on p38α (setting [1]), 523 nM and 577 nM.

Turning to `O=C(c1ccc2cc[nH]c2c1)N1CCC(Cc2ccccc2)CC1` [Piperidinyl 6, 4-benzylpiperidinyl-indole-6-carboxamide], the “percent inhibition of p38β activity” value on p38β (setting [2]) stood at 92%. For the same compound, the IC50 is above 500000 nM on PKA; above 300000 nM on ERK-2; 450000 nM on DNA-PK; above 500000 nM at PKC; above 500000 nM at EGF-R; above 500000 nM on cdc2. Also, on p38-γ, the IC50 is above 300000 nM.

For the compound `O=C(c1cccc2cc[nH]c12)N1CCC(Cc2ccccc2)CC1` [Piperidinyl 7], on p38β (setting [3]), the inhibition at 50 µM was found to be 45%. Moreover, the IC50 at p38α (setting [4]) is above 30000 nM.

For `O=C(c1ccc2c(ccn2C(=O)c2ccncc2)c1)N1CCC(Cc2ccccc2)CC1` [drawing 82], on p38α (setting [1]), the IC50 was determined as 871 nM.

On to `O=C(c1ccc2c(ccn2C(=O)c2ccncc2)c1)N1CCC(Cc2ccccc2)CC1` [drawing 83], for which the IC50 at p38α (setting [1]) is 405 nM.

Values taken from patent US6589954B1, “Compounds and methods to treat cardiac failure and other disorders” (Scios, Inc., priority 1998, dated 2003).
